The source of these data is patent US8802597B2, “Herbicidal pyrimidines” (E I du Pont de Nemours and Company, priority 2003, dated 2014).

Holding throughout (assay): Test A pre/postemergence
Holding throughout (type): in vivo

The test system of assay [1] is crabgrass (Digitaria sanguinalis). The settings on record: for pest or weed control at 125 g/ha / pest or weed control at 500 g/ha: Digitaria sanguinalis, 240 h, read-out: Plant response rating, Crabgrass. Here is the method: (§1) Seeds of barnyardgrass (Echinochloa crus-galli), crabgrass (Digitaria sanguinalis), giant foxtail (Setaria faberi), morningglory (Ipomoea spp.), redroot pigweed (Amaranthus retroflexus) and velvetleaf (Abutilon theophrasti) were planted into a blend of loam soil and sand and treated preemergence with a directed soil spray using test chemicals formulated in a non-phytotoxic solvent mixture which included a surfactant. At the same time these species were also treated with postemergence applications of test chemicals formulated in the same manner.
(§2) Plants ranged in height from 2 to 10 cm and were in the 1- to 2-leaf stage for the postemergence treatment. Treated plants and untreated controls were maintained in a greenhouse for approximately ten days, after which time all treated plants were compared to untreated controls and visually evaluated for injury. Plant response ratings, summarized in Table A, are based on a 0 to 100 scale where 0 is no effect and 100 is complete control. A dash (-) response means no test results.

The subject of assay [2] is velvetleaf (Abutilon theophrasti). Particulars: for pest or weed control at 125 g/ha / pest or weed control at 500 g/ha: Abutilon theophrasti, 240 h, read-out: Plant response rating, Velvetleaf. The procedure: as §1, §2
Assay [3] concerns giant foxtail (Setaria faberi). The settings on record: for pest or weed control at 125 g/ha / pest or weed control at 500 g/ha: Setaria faberi, 240 h, read-out: Plant response rating, Foxtail, Giant. Here is the method: as §1, §2
Assay [4] concerns morningglory (Ipomoea spp.). The settings on record: for pest or weed control at 125 g/ha / pest or weed control at 500 g/ha: Ipomoea, 240 h, read-out: Plant response rating, Morningglory. The procedure: as §1, §2
Assay [5] relates to barnyardgrass (Echinochloa crus-galli). Particulars: for pest or weed control at 125 g/ha / pest or weed control at 500 g/ha: Echinochloa crus-galli, 240 h, read-out: Plant response rating, Barnyardgrass. The procedure:
as §1, §2

Assay [6] concerns redroot pigweed (Amaranthus retroflexus). The settings on record: for pest or weed control at 125 g/ha / pest or weed control at 500 g/ha: Amaranthus retroflexus, 240 h, read-out: Plant response rating, Pigweed. The procedure: as §1, §2
[7] abbreviates: Postemergence, 125 g ai/ha, 0 to 100 scale (0 no effect, 100 complete control).
Where [8] appears, read: Postemergence, 500 g ai/ha, 0 to 100 scale (0 no effect, 100 complete control).
[9] abbreviates: Preemergence, 125 g ai/ha, 0 to 100 scale where 0 is no effect and 100 is complete control, approximately ten days.
Setting [10] is: Preemergence, 500 g ai/ha, 0 to 100 scale where 0 is no effect and 100 is complete control, approximately ten days.
The mark [11] stands for this setting: post-emergence, Postemergence, 125 g ai/ha, 0 to 100 scale (0 no effect, 100 complete control).
Where [12] appears, read: post-emergence, Postemergence, 500 g ai/ha, 0 to 100 scale (0 no effect, 100 complete control).
[13] abbreviates: pre-emergence, Preemergence, 125 g ai/ha, 0 to 100 scale where 0 is no effect and 100 is complete control, approximately ten days.
Setting [14] is: pre-emergence, Preemergence, 500 g ai/ha, 0 to 100 scale where 0 is no effect and 100 is complete control, approximately ten days.

Where two headings read alike, the source gives them in different places.

For the compound `Nc1nc(-c2ccc(F)cc2)nc(C(=O)O)c1Br` [Compound 93], the “Plant response rating, Crabgrass” value in assay [1] (setting [7]) was 0; in assay [1] (setting [8]), 0; in assay [1] (setting [9]), 25; in assay [1] (setting [10]), 45. Besides, the “Plant response rating, Velvetleaf” value in assay [2] (setting [7]) is listed as 65; in assay [2] (setting [8]), 80; in assay [2] (setting [9]), 55; in assay [2] (setting [10]), 85. Besides, the “Plant response rating, Foxtail, Giant” value came to 0 in assay [3] (setting [7]), 0 in assay [3] (setting [8]), 5 in assay [3] (setting [9]) and 35 in assay [3] (setting [10]). Further, the “Plant response rating, Morningglory” value in assay [4] (setting [7]) was 40; in assay [4] (setting [8]), 55; in assay [4] (setting [9]), 0; in assay [4] (setting [10]) it was 5. For the same compound, the “Plant response rating, Barnyardgrass” value in assay [5] (setting [7]) was 0; in assay [5] (setting [8]) it was 0; in assay [5] (setting [9]) it was 5; in assay [5] (setting [10]) it was 30. For the same compound, the “Plant response rating, Pigweed” value in assay [6] (setting [7]) amounted to 45; in assay [6] (setting [8]), 70; in assay [6] (setting [9]), 80; in assay [6] (setting [10]), 90.
With `CCOC(=O)c1nc(-c2ccc3c(c2)OCO3)nc(N)c1Br` [Compound 68], the pest or weed control at 125 g/ha came to 0% in assay [1] (setting [11]); 0% in assay [1] (setting [13]); 60% in assay [2] (setting [11]); 5% in assay [2] (setting [13]); 0% in assay [3] (setting [11]); 0% in assay [3] (setting [13]). In addition, the pest or weed control at 125 g/ha in assay [4] (setting [11]) was 15%; in assay [4] (setting [13]) it was 0%; in assay [5] (setting [11]) it was 0%; in assay [5] (setting [13]), 0%; in assay [6] (setting [11]), 50%; in assay [6] (setting [13]) it was 0%. Also, the pest or weed control at 500 g/ha in assay [1] (setting [12]) is 0%; in assay [1] (setting [14]), 0%; in assay [2] (setting [12]) it was 60%; in assay [2] (setting [14]), 10%; in assay [3] (setting [12]), 0%; in assay [3] (setting [14]), 0%. Moreover, the pest or weed control at 500 g/ha was 35% in assay [4] (setting [12]); 0% in assay [4] (setting [14]); 0% in assay [5] (setting [12]); 0% in assay [5] (setting [14]); 55% in assay [6] (setting [12]); 15% in assay [6] (setting [14]).
For the compound `COC(=O)c1nc(-c2ccc([S+](C)[O-])cc2)nc(N)c1Cl` (stereo not drawn) [Compound 123], the “Plant response rating, Crabgrass” value in assay [1] (setting [7]), in assay [1] (setting [8]), in assay [1] (setting [9]) and in assay [1] (setting [10]) was 0 each time. The “Plant response rating, Velvetleaf” value in assay [2] (setting [7]), in assay [2] (setting [8]), in assay [2] (setting [9]) and in assay [2] (setting [10]) was 0 throughout. Moreover, the “Plant response rating, Foxtail, Giant” value came to 0 in assay [3] (setting [7]), 10 in assay [3] (setting [8]), 0 in assay [3] (setting [9]) and 0 in assay [3] (setting [10]). The “Plant response rating, Morningglory” value turned out to be 0 in assay [4] (setting [7]), 20 in assay [4] (setting [8]), 0 in assay [4] (setting [9]) and 0 in assay [4] (setting [10]). Also, the “Plant response rating, Barnyardgrass” value in assay [5] (setting [7]) turned out to be 0; in assay [5] (setting [8]) it was 10; in assay [5] (setting [9]), 0; in assay [5] (setting [10]), 0. For the same compound, the “Plant response rating, Pigweed” value in assay [6] (setting [7]), in assay [6] (setting [8]), in assay [6] (setting [9]) and in assay [6] (setting [10]) was 0 in each case.
With `Nc1nc(C2CC2)nc(OCC(=O)[O-])c1Cl.[Na+]` [Compound 116], the “Plant response rating, Crabgrass” value in assay [1] (setting [7]) worked out at 0; in assay [1] (setting [8]) it was 0; in assay [1] (setting [9]) it was 0; in assay [1] (setting [10]) it was 10. Also, the “Plant response rating, Velvetleaf” value is 15 in assay [2] (setting [7]), 40 in assay [2] (setting [8]), 0 in assay [2] (setting [9]) and 15 in assay [2] (setting [10]). Further, the “Plant response rating, Foxtail, Giant” value in assay [3] (setting [7]), in assay [3] (setting [8]), in assay [3] (setting [9]) and in assay [3] (setting [10]) was 0 throughout. Further, the “Plant response rating, Morningglory” value in assay [4] (setting [7]) came to 40; in assay [4] (setting [8]) it was 60; in assay [4] (setting [9]) it was 30; in assay [4] (setting [10]) it was 50. Further, the “Plant response rating, Barnyardgrass” value came to 0 in assay [5] (setting [7]), 0 in assay [5] (setting [8]), 10 in assay [5] (setting [9]) and 20 in assay [5] (setting [10]). The “Plant response rating, Pigweed” value in assay [6] (setting [7]) came to 20; in assay [6] (setting [8]) it was 35; in assay [6] (setting [9]), 30; in assay [6] (setting [10]), 50.
